Tests used:
[1] = cited from earlier work
[2] = Experiment 4: in vivo pharmacokinetic behavior, rapamycin level in blood; parameters: species or system male Sprague-Dawley rats; settings: rats, intravenous administration
Protocol: The in vivo pharmacokinetic behavior of the rapamycin-entrapping nanoparticle composition of Example 1 was evaluated. For animal experiment, male Sprague-Dawley rats weighing 210 to 250 g were used, and 0.3 ml of whole blood was taken from caudal vein every 5, 15 and 30 minutes, and 1, 2, 4, 8 and 24 hours after intravenous and subcutaneous injection of the dose of 5 mg/kg, on the basis of rapamycin. The collected whole blood was treated with the Protein Precipitation (PPT, Progress in Pharmaceutical and Biomedical Analysis, Volume 5, 2003, Pages 199-254) and then centrifuged to obtain 0.15 ml of clear supernatant which was analyzed to check the rapamycin concentration in blood by LC/MS/MS method.
The in vivo pharmacokinetic behavior of the rapamycin-entrapping nanoparticle composition of Example 2 was evaluated by means of the same method as in Experiment 1. However, the composition was administered via oral, intravenous or subcutaneous route in the dose of 10 mg/kg on the basis of rapamycin, and 0.3 ml of whole blood was taken from caudal vein every 15 and 30 minutes, and 1, 2, 4, 8, 24 and 48 hours after administration.

[3] = male, Sprague-Dawley, rat, whole blood, 10 mg/kg

SMILES: CO[C@H]1C[C@@H]2CC[C@@H](C)[C@@](O)(O2)C(=O)C(=O)N2CCCC[C@H]2C(=O)O[C@H]([C@H](C)C[C@@H]2CC[C@@H](O)[C@H](OC)C2)CC(=O)[C@H](C)/C=C(\C)[C@@H](O)[C@@H](OC)C(=O)[C@H](C)C[C@H](C)/C=C/C=C/C=C/1C [rapamycin, Rapamycin]
- solubility in water [1]: 1 to 2 µg/mL
- AUC(0-t) ([2]; male, Sprague-Dawley, rat, whole blood, 10 mg/kg on the basis of rapamycin): 5370 ng·h/mL
- AUC(0-inf) [2, 3]: 5600 ng·h/mL
- Cmax [2, 3]: 2890 ng/mL
- Tmax [2, 3]: 0.25 h
- half-life [2, 3]: 10.5 h
- F ([2]; 10 mg/kg, free sirolimus intravenous = 100): 100%

From US9173841B2, “Polymer nanoparticle injection formulation composition containing rapamycin with improved water solubility, preparation method thereof, and anticancer composition for combined use with radiotherapy” (SAMYANG BIOPHARMACEUTICALS CORPORATION, priority 2009, dated 2015)
